# Experiments:
# Assay in all cases: CLSI broth dilution MIC determination
# Type in all cases: cell-based
# [1] = tested on: E. faecalis Vancomycin-resistant; details: E. faecalis Vancomycin-resistant; Gram-positive
# [2] = tested on: P. aeruginosa HPA101-1477; details: Gram-negative
# K. pneumoniae KPC-2 = details: Gram-negative
# A. baumannii ATCC 19606 = details: A. baumannii ATCC 19606; Gram-negative
# K. pneumoniae ATCC 10031 = details: K. pneumoniae ATCC 10031; Gram-negative
# [3] = tested on: A. baumannii imipenem-resistant; details: Gram-negative
# S. pneumoniae ATCC 49619 = details: S. pneumoniae ATCC 49619; Gram-positive
# Summary of the method: (§1)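 MICs were measured by broth dilution following CLSI standard procedures. Azithromycin and solithromycin served as control macrolides in many cases. Macrolide-resistance genotypes in the panel may be constitutive or inducible.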
# H. influenzae ATCC49247 = details: Gram-negative
# Summary of the method: as §1
# [4] = tested on: S. pneumoniae mef A genotype (second strain so labelled); details: Gram-positive
# Summary of the method: as §1
# E. coli CTX-M-14 = details: Gram-negative
# Summary of the method: as §1
# S. aureus MRSA: USA300 = details: S. aureus MRSA: USA300; Gram-positive
# Summary of the method: as §1
# E. coli ATCC 25922 = details: E. coli ATCC 25922; Gram-negative
# Summary of the method: as §1
# [5] = tested on: S. pneumoniae erm B + mef A genotype; details: S. pneumoniae erm B + mef A genotype; Gram-positive
# Summary of the method: as §1
# K. pneumoniae TEM-10 = details: Gram-negative
# S. aureus MRSA: USA100 = details: S. aureus MRSA: USA100; Gram-positive
# Summary of the method: as §1
# S. aureus erm A genotype = details: S. aureus erm A genotype; Gram-positive
# Summary of the method: as §1
# E. coli NDM-1 = details: Gram-negative
# Summary of the method: as §1
# E. coli TEM-1 = details: E. coli TEM-1; Gram-negative
# Summary of the method: as §1
# S. aureus ATCC 29213 = details: S. aureus ATCC 29213; Gram-positive
# Summary of the method: as §1
# S. aureus USA600, GISA = details: S. aureus USA600, GISA; Gram-positive
# Summary of the method: as §1
# S. pyogenes ATCC 19615 = details: S. pyogenes ATCC 19615; Gram-positive
# [6] = tested on: S. pyogenes Macrolide-resistant; details: S. pyogenes Macrolide-resistant; Gram-positive
# P. aeruginosa ATCC 27853 = details: P. aeruginosa ATCC 27853; Gram-negative
# E. faecalis ATCC 29212 = details: E. faecalis ATCC 29212; Gram-positive
# [7] = tested on: A. baumannii chromosomal class C; details: Gram-negative
# A. baumannii IMP-4 = details: Gram-negative
# K. pneumoniae SHV-12 = details: Gram-negative
# [8] = tested on: H. influenzae Erythro >4, Azithro 1; details: H. influenzae Erythro >4, Azithro 1; Gram-negative
# Excerpt: MIC data was collected for the novel macrolides that this platform has produced against over 21 unique strains of B. subtilis, E. coli, S. aureus, S. pneumoniae, and H. influenzae, including several multidrug-resistant strains, with a special focus on macrolide resistant mechanisms (vide supra). […] CLSI standard procedures for broth dilution MIC determination were used. […] These genotypes can be constitutive or inducible.
smiles,measurement,setting,value
CC[C@H]1OC(=O)[C@@](C)(F)C(=O)[C@H](C)[C@@H](O[C@@H]2OC(C)CC(N(C)C)C2O)[C@](C)(OC)C[C@@H](C)C(=O)[C@H](C)[C@H]2N(C/C=C/Cn3nnc(-c4ccccn4)n3)C(=O)O[C@]12C (some centres unmarked) [FSM-100389],MIC,[1],> 32 µg/mL
same,MIC,[2],> 32 µg/mL
same,MIC,K. pneumoniae KPC-2,> 32 µg/mL
same,MIC,A. baumannii ATCC 19606,16 µg/mL
same,MIC,K. pneumoniae ATCC 10031,4 µg/mL
same,MIC,[3],16 µg/mL
same,MIC,S. pneumoniae ATCC 49619,< 0.0312 µg/mL
same,MIC,H. influenzae ATCC49247,1 µg/mL
same,MIC,[4],< 0.0312 µg/mL
same,MIC,E. coli CTX-M-14,> 32 µg/mL
same,MIC,S. aureus MRSA: USA300,2 µg/mL
same,MIC,E. coli ATCC 25922,32 µg/mL
same,MIC,[5],0.0625 µg/mL
same,MIC,K. pneumoniae TEM-10,> 32 µg/mL
same,MIC,S. aureus MRSA: USA100,> 32 µg/mL
same,MIC,S. aureus erm A genotype,> 32 µg/mL
same,MIC,E. coli NDM-1,> 32 µg/mL
same,MIC,E. coli TEM-1,32 µg/mL
same,MIC,S. aureus ATCC 29213,< 0.0312 µg/mL
same,MIC,"S. aureus USA600, GISA",> 32 µg/mL
same,MIC,S. pyogenes ATCC 19615,< 0.0312 µg/mL
same,MIC,[6],< 0.0312 µg/mL
same,MIC,P. aeruginosa ATCC 27853,> 32 µg/mL
same,MIC,E. faecalis ATCC 29212,< 0.0312 µg/mL
same,MIC,[7],32 µg/mL
same,MIC,A. baumannii IMP-4,> 32 µg/mL
same,MIC,K. pneumoniae SHV-12,> 32 µg/mL
same,MIC,[8],1 µg/mL
CC[C@H]1OC(=O)[C@H](C)C(=O)[C@H](C)[C@@H](O[C@@H]2OC(C)CC(N(C)C)C2O)[C@](C)(OC)C[C@@H](C)C(=O)[C@H](C)[C@H]2N(C/C=C\Cn3cc(-c4cccc(N)c4)nn3)C(=O)O[C@]12C (some centres unmarked) [FSM-100423],MIC,[1],> 32 µg/mL
same,MIC,[2],> 32 µg/mL
same,MIC,K. pneumoniae KPC-2,> 32 µg/mL
same,MIC,A. baumannii ATCC 19606,32 µg/mL
same,MIC,K. pneumoniae ATCC 10031,16 µg/mL
same,MIC,[3],32 µg/mL
same,MIC,S. pneumoniae ATCC 49619,< 0.0312 µg/mL
same,MIC,H. influenzae ATCC49247,2 µg/mL
same,MIC,[4],< 0.0312 µg/mL
same,MIC,E. coli CTX-M-14,> 32 µg/mL
same,MIC,S. aureus MRSA: USA300,> 32 µg/mL
same,MIC,E. coli ATCC 25922,> 32 µg/mL
same,MIC,[5],0.0625 µg/mL
same,MIC,K. pneumoniae TEM-10,> 32 µg/mL
same,MIC,S. aureus MRSA: USA100,> 32 µg/mL
same,MIC,S. aureus erm A genotype,> 32 µg/mL
same,MIC,E. coli NDM-1,> 32 µg/mL
same,MIC,E. coli TEM-1,> 32 µg/mL
same,MIC,S. aureus ATCC 29213,0.125 µg/mL
same,MIC,"S. aureus USA600, GISA",> 32 µg/mL
same,MIC,S. pyogenes ATCC 19615,< 0.0312 µg/mL
same,MIC,[6],< 0.0312 µg/mL
same,MIC,P. aeruginosa ATCC 27853,> 32 µg/mL
same,MIC,E. faecalis ATCC 29212,< 0.0312 µg/mL
same,MIC,[7],32 µg/mL
same,MIC,A. baumannii IMP-4,> 32 µg/mL
same,MIC,K. pneumoniae SHV-12,> 32 µg/mL
same,MIC,[8],4 µg/mL

# From patent US10633407B2, “14-membered ketolides and methods of their preparation and use” (President and Fellows of Harvard College, priority 2014, dated 2020)
